Data published in patent US4076947A, “Cycloalkyl and cycloalkenyl prostaglandin congeners” (American Cyanamid Company, priority 1977, dated 1978).
Where two headings read alike, the source gives them in different places.

How the values were obtained:
Assay type in all cases: in vivo
[1] = tested on: ulcerogenic properties of indomethacin; assay: Protection against indomethacin-induced gastric ulcers in rats (ulcer score); conditions: total oral dose 6.25 mg./kg. in two halves; indomethacin 20 mg./kg. s.c.; scale 0-4; control score 3.0; lowering by 0.5 or more = active
Text: The novel compounds of the present invention have potential utility as hypotensive agents, anti-ulcer agents, agents for the treatment of gastric hypersecretion and gasteric erosion, bronchodilators, abortifacients, agents for the induction of labor, agents for the induction of menses, fertility-controlling agents, central nervous system regulatory agents, salt and water-retention regulatory agents, diuretics, fat metabolic regulatory agents, serum-cholesterol lowering agents, anti-inflammatory agents and as agents for the inhibition of platelet aggregation. […] The compounds of this invention provide protection against the ulcerogenic properties of indomethacin. A measure of this utility which also measures potential anti-ulcer properties is the assay which follows.
Rats were starved for 48 hours (water was given ad libitum). Indomethacin (20 mg./kg. of body weight) was administered by the subcutaneous route and one-half the dose of the test compound was administered by gavage at the same time. After three hours, the second half of the test compound was administered also by gavage. Five hours after the administration of indomethacin the animals were decapitated and the stomachs removed. The stomachs were washed with distilled water, blotted on gauze, cut along the larger curvature, and the contents rinsed with distilled water. […]

[2] = tested on: bronchospasms elicited by intravenous injections of histamine; assay: Bronchodilator activity, Konzett procedure, against histamine; conditions: three logarithmic cumulative intravenous doses, guinea pigs
Method: (§1) Bronchodilator activity was determined in guinea pigs against bronchospasms elicited by intravenous injections of 5-hydroxytryptamine, histamine or acetylcholine by the Konzett procedure. [See J. Lulling, P. Lievens, F. El Sayed and J. Prignot, Arzneimittel-Forschung, 18, 995 (1968)].
(§2) In the Table which follows bronchodilator activity for representative compounds of this invention against one or more of three spasmogenic agents is expressed as an ED50 determined from the results obtained with three logarithemic cumulative intravenous doses.

[3] = tested on: bronchospasms elicited by intravenous injections of 5-hydroxytryptamine; assay: Bronchodilator activity, Konzett procedure, against 5-hydroxytryptamine; conditions: Cavia porcellus, three logarithmic cumulative intravenous doses, guinea pigs, read-out: ED50, spasmogenic agent 5-hydroxytryptamine
Method: as §1, §2

[4] = tested on: bronchospasms elicited by intravenous injections of acetylcholine; assay: Bronchodilator activity, Konzett procedure, against acetylcholine; conditions: Cavia porcellus, three logarithmic cumulative intravenous doses, guinea pigs, read-out: ED50, spasmogenic agent acetyl choline
Method: as §1, §2

Structure (SMILES)	Score, Treated [1]	ED50 [3] [mg/kg]	ED50 [4] [mg/kg]	also measured
O=C(O)CCCCCCC1C(=O)CC(O)C1C=CC(O)CC1CCCC1 (stereo not drawn) [d,l 9-oxo-11α,15-epi-dihydroxy-17,20-methano-13-trans-proste] [d,l 9-oxo-11α,15-epi-dihydroxy-17,20-methano-13-trans-prostenoic acid]	2.3			ED50, spasmogenic agent histamine ([2]; listed as d,1-9-oxo-11α-15-epi-dihydroxy-17,20-methano-13-trans-prostenoic acid): 0.042 mg/kg
O=C(O)CCCCCCC1C(=O)CC(O)C1C=CC(O)CC1CCCC1 (stereo not drawn) [d,l 9-oxo-11α,15-dihydroxy-17,20-methano-13-trans-prostenoic acid]		0.0018	0.0013	
O=C(O)CCCCCCC1C(=O)CC(O)C1C=CC(O)CC1CCCC1 (stereo not drawn) [d,l 9-oxo-11α,15-epi-dihydroxy-17,20-methano-13-trans-prostenoic acid]				ED50 ([3]; no power of ten printed): 0.228 mg/kg
O=C(O)CCCCCCC1C(=O)C=CC1C=CC(O)CC1CCCC1 (stereo not drawn) [d,1-9-oxo-15-hydroxy-17,20-methano-10,13-trans-prostadienoic acid]		0.0546	0.292	ED50 ([2]; Cavia porcellus, iv, read-out: ED50, spasmogenic agent histamine): 0.041 mg/kg
O=C(O)CCCCCCC1C(=O)CC(O)C1C=CC(O)CC1CCCC1 (stereo not drawn) [d,l 9-oxo-11α,15-dihydroxy-17,20-methano-13-trans-prostenoic] [d,l 9-oxo-11α,15-dihydroxy-17,20-methano-13-trans-prostenoic acid]	1.5			ED50, spasmogenic agent histamine ([2]; listed as d,1-9-oxo-11α-15-dihydroxy-17,20-methano-13-trans-prostenoic acid): 0.000444 mg/kg
